# Measured values: US20090298169A1, “Pancreatic and Liver Endoderm Cells and Tissue by Differentiation of Definitive Endoderm Cells Obtained from Human Embryonic Stems” (The University of Georgia Research Foundation, priority 2006, published 2009)
# Columns and labels:
# [1] = system: human definitive endoderm cells (DE); assay: Pancreatic endoderm formation from definitive endoderm with retinoic acid in FCS base media (Pdx1, Isl1 markers); format: cell-based
# Protocol: (§1) BG01 hESCs were treated with LY 294002 (50 μM) for four days then switched to media containing DMEM/F12, 10% FCS, 50 ng/ml Fgf10 and 2 μM retinoic acid for up to four days. Untreated-untreated hESCs. Transcript levels were analyzed by QRT-PCR in triplicate and shown as the fold-increase over untreated samples (hESCs) after normalization to GAPDH reference transcript. Fold-induction of Pdx1 transcript levels are indicated.
# as §1, with “consisting of” for “containing”, “Untreated: untreated” for “Untreated-untreated”, “transcript.” for “transcript. Fold-induction of Pdx1 transcript levels are indicated.”
# The present invention relates to pancreatic endoderm cells (PE) which are obtained from definitive endoderm cells by exposing the definitive endoderm cells to an effective concentration of retinoic acid (at least about 0.05-0.1 μg/ml, preferably about 0.1-25 μg/ml, more preferably about 0.1-2.0 μg/ml) in base media comprising an effective amount of fetal calf serum (FCS— preferably about 10% of the base media plus serum) for a period of at least about 2 days, preferably at least about 4 days, and more preferably about 4 days, followed by exposing the cells obtained from the first step to FCS (preferably, about 10%) in base media for at least one day, preferably at least about 2 days in the absence of retinoic acid. This method preferably results in at least about 35-50% and preferably at least about 70-80+% of the cells in the treated sample expressing the pancreatic endoderm markers, Pdx1 and Isl1.
# Definitive endoderm cells (from treatment above) are washed 2× with PBS. 2-3 ml Trypsin/EDTA solution is added and cells are triturated and collected in a 15 ml conical tube. DMEM/F12 with 10% FBS is added to stop the trypsinization and the cells are centrifuged at 200×g for 5 minutes. […]
# [2] = system: BG01 cells; assay: Morphology of BG01 hES cells cultured with PI3-kinase pathway inhibitors (standard microscopy); format: cell-based, human
# Protocol: BG01 cells are passaged from feeders using the collagenase/trypsin method and are plated on matrigel coated dishes at 1×10^5 cells/35 mm dish in conditioned medium (CM; MEF conditioned medium plus 8 ng/ml bFGF). After approximately 24 hours, the media is replaced with fresh CM, CM with inhibitor (resuspended in EtOH), CM with EtOH, or with Spontaneous Differentiation medium (hES medium minus bFGF).
# In alternative methods, the BG01 cells may be plated at different concentrations prior to contact with CM, CM with inhibitor and CM with EtOH Cells may be plated at the following concentrations: approximately 5×10^4 cells/35 mm dish, approximately 1×10^5 cells/35 mm dish, approximately 2×10^5 cells/35 mm dish, approximately 4×10^5 cells/35 mm dish and, approximately 6×10^5 cells/35 mm dish.
# The inhibitor LY 294002 (Biomol) may be preferably used at the concentration range approximately 20-163 μM and the inhibitor Rapamycin (Calbiochem) is used at the concentration range approximately 1.5-30 nM. LY 294002 inhibits the PI3-kinase pathway by binding to the ATP docking site of p110. Rapamycin inhibits a subset of the PI3-kinase pathway by inhibiting mTOR (mammalian target of rapamycin).
# Cells are grown in these conditions for approximately 72 hours with a medium change every 24 hours. Cells are harvested using the collagenase/trypsin method for flow cytometry and RT-PCR analysis and are scraped for biochemical analysis.
# In undifferentiated cultures, individual cells are not easily discernable, being relatively small, irregular and without clearly apparent intercellular junctions at higher density. […] Individual cells are also more readily discernable at higher densities since discrete intercellular adhering junctions are evident between neighboring cells.
# [3] = system: BG01 cells; assay: Flow cytometry of cell surface markers (CD9) on inhibitor treated BG01 cells; format: cell-based, human
# Protocol: (§2) The inhibitor studies are performed as described in Example 2.
# For flow cytometry, the BG01 cells are washed with 1×PBS and fixed in 2% paraformaldehyde/1×PBS for 10 minutes at room temperature. The cells are then washed in 1×PBS and approximately 2×10^5 cells are incubated with primary antibody diluted in 1% BSA/1×PBS. The primary antibodies used are anti-CD9 and anti-thrombomodulin (Cymbus Biotechnology), FITC conjugated mouse monoclonal antibodies at a 1:10 dilution. Cells are incubated at 4° C. for 30 minutes and then washed twice in 1×PBS. Where appropriate, cells are resuspended in a secondary antibody, anti-mouse Alexa-488 (Molecular Probes) diluted 1:1000 in 1% BSA/PBS, incubated at 4° C. for 30 minutes, and then washed twice in 1×PBS. Cells are resuspended in 1% BSA/1×PBS and surface expression is analyzed using a Beckman Coulter FC500.
# [4] = system: BG01 cells; assay: RT-PCR analysis of differentiation markers in inhibitor treated BG01 cells; format: cell-based, human
# Protocol: as §2
# Total RNA is isolated using TRIzol Reagent (GibcoBRL). RNA is run on a 1% agarose gel containing ethidium bromide and visualized using the AlphaImager™ 2200 Documentation and Analysis System to ensure RNA integrity. 10 μg of RNA is treated with DNase (Ambion), which is removed with DNase Inactivation Reagent (Ambion). cDNA is prepared with 500 ng of total RNA using the Superscript II Reverse transcriptase Kit (Invitrogen) using oligo(dT) primers. PCR reactions are carried out on 1 μl of cDNA. PCR products are run on a 2% agarose gel containing ethidium bromide and visualized using the Alphaamager™ 2200 Documentation and Analysis System. PCR primer sets used were GATA4, Mix1, Msx1, AFP, HNF4alpha, eHAND, Nanog, AFP and GAPDH.
# [5] = system: PI3-kinase signaling pathway; assay: Western blot analysis of PI3-kinase signaling pathway activity (phosphorylated PKB/Akt, S6 kinase, S6 protein); format: cell-based, human; details: BG01 cells maintained in the presence of inhibitor
# Protocol: Activity of the PI3-kinase signaling pathway may be assessed by Western blot analysis. Briefly, detergent extracts are prepared from untreated and treated cell cultures, separated by SDS-PAGE and blotted to nitrocellulose. Expression of active forms of the PI3-kinase intracellular targets PKB/Akt, S6 kinase and S6 protein are then determined by probing the nitrocellulose with appropriate antibodies to phosphorylated forms of each of these proteins. Generally, 30 μg of total protein are evaluated for each sample, primary incubations were carried out at a 1:1000 dilution of antibody, and binding in each case is detected by standard ECL based methodology.
# [6] = system: BG01 hESCs; assay: AFP transcript induction (QRT-PCR) following treatment of definitive endoderm; format: cell-based, human; details: DE from LY 294002 (50 μM, four days), then DMEM/F12, 10% FCS up to six more days, presence or absence of Fgf10
# Protocol: (§3) BG01 hESCs were differentiated into definitive endoderm for four days following the addition of LY 294002 (50 μM). Media was changed to DMEM/F12, 10% FCS and cells grown for up to six more days. Untreated: untreated hESCs. AFP transcript levels were analyzed by QRT-PCR in triplicate and shown as the fold-increase over untreated samples (hESCs) after normalization to GAPDH reference transcript.
# as §3, with “The first example relates to the generation of cells expressing the embryonic liver marker alphafetoprotein (AFP) following treatment of definitive endoderm. BG01” for “BG01”
molecule,measurement,setting,value
"CC1=C(/C=C/C(C)=C/C=C/C(C)=C/C(=O)O)C(C)(C)CCC1 [retinoic acid, all-trans retinoic acid]",homogeneity of differentiated cells,[1]; definitive endoderm cells cultured with retinoic acid in basal cell media,greater homogeneity than spontaneously differentiated cells
same,Isl1 expression,[1]; following treatment,marked increase
same,population of cells pure for the PE markers Pdx1 and Isl1,[1]; from definitive endoderm cells,70-80%
"O=c1cc(N2CCOCC2)oc2c(-c3ccccc3)cccc12 [LY 294002, 2-(4-Morpholinyl)-8-phenyl-4H-1-benzopyran-4-one]",cell spreading and morphology after treatment,"[2]; BG01 cells after treatment, compared with undifferentiated cultures",marked spreading and adopted obvious epitheloid cuboidal morphologies
same,changes in morphology at high plating density,[2]; cells plated at approximately 4×10^5 cells/35 mm dish or higher,do not demonstrate the same morphological changes
same,changes in morphology at low plating density,[2]; cells plated lower than approximately 2×10^5 cells/35 mm dish,display changes in morphology
same,morphological change of BG01 cells,"[2]; cultured in the presence of inhibitor, matrigel, conditioned medium, approximately 72 hours",undergo morphological change
same,"cell surface CD markers expressed by undifferentiated hES cells (CD9, 27, 30, 46, 58 and 81)",[3]; after LY treatment,loss of a subset of cell surface CD markers
same,expression of CD9,[3]; compared with spontaneous differentiation in adherent culture or embryoid bodies,may decrease more rapidly
same,markers indicative of early differentiation,[4],may be detected
same,activity of Akt,[5],inhibited
same,activity of S6,[5],inhibited
same,activity of S6 kinase,[5],inhibited
"Fgf10: fibroblast growth factor 10 (protein, UniProt O15520 38-208, looked up) Fibroblast growth factor 10: QALGQDMVSPEATNSSSSSFSSPSSAGRHVRSYNHLQGDVRWRKLFSFTKYFLKIEKNGKVSGTKKENCPYSILEITSVEIGVVAVKAINSNYYLAMNKKGKLYGSKEFNNDCKLKERIEENGYNTYASFNWQHNGRQMYVALNGKGAPRRGQKTRRKNTSAHFLPMVVHS",AFP induction,[6],optimal AFP induction
